The experiment concerns the target P. falciparum apicoplast DNA polymerase (Pf-apPOL) (Plasmodium falciparum, UniProt Q8ILY1). Nature of the experiment: Fluorescence-based high-throughput DNA polymerase assay (molecular beacon), primary screen and dose-response. The class given is biochemical. As for the experimental part:
The HT assay employs a molecular beacon, a stem-loop DNA template with a Cy3 dye and the Black Hole Quencher on the 3′ and 5′ ends of the DNA, respectively. Pf-apPOL concentration is based on a calculated absorptivity of ε280 = 56750 M^−1 cm^−1. Reactions were carried out at 25 °C, using Corning 3575 […] (well-volume, 20 µL). Assays testing for compound inhibition composed of reaction buffer (pH 7.9 in 50 mM potassium acetate, 20 mM Tris-acetate and 10 mM magnesium acetate), Pf-apPOL (20 nM), DNA substrate (20 nM), dNTPs (6 µM), and compound (10 µM in DMSO). The DNA and nucleotide substrates (dNTPs) were at concentrations of 20 nM and 6 µM, respectively, in the assay. Pf-apPOL was incubated in the reaction buffer with dNTPs and the compound of interest (10 µM, in the assay) at 25 °C for 10 min. The DNA substrate was then added and the reaction was allowed to proceed for 90 min at 25 °C.
Each assay plate contained 16 negative controls (no Pf-apPOL, DMSO present) and 16 positive controls (Pf-apPOL present, no DMSO). The fluorescence of each well was determined using a BioTek Synergy Neo fluorescence plate reader using excitation and emission wavelengths of 555 and 570 nm, respectively.
In the above, Min is the average of fluorescence emission of the negative controls (substrate only), Max the average fluorescence emission from the positive controls (enzyme + substrate), and Test the emission from the assays in the presence of compounds (enzyme + compound + substrates). […] […] The IC50 of each compound was determined using Equation (2): (2) IC50= Vmax/(1+ (I/IC50)^n)
In the above, n measures cooperativity, with n > 1 indicating synergistic binding of more than a single molecule of the compound.
To identify apPOL inhibitors we utilised our previously developed high-throughput DNA polymerase assay. The HT assay is based on a molecular beacon DNA template that forms a stem-loop with a Cy3 dye and the Black Hole Quencher on the 3′ and 5′ ends of the DNA, respectively. DNA polymerase activity extends an annealed primer through the stem region, displacing the fluorophore from the quencher, thereby increasing its fluorescence (Figure 1(A)). The assay accurately recapitulates the kinetic behaviour of apPOL, as measured through more conventional low-throughput gel-based assays. The Z′ factor for the assay described here was 0.9 across all plates (data not shown).
Figure 1. High-throughput screening. (A) The fluorescent-based DNA polymerase assay used to screen the compound libraries. The DNA template strand is a hairpin loop with a primer annealed to the loop. The 3’ end of the primer is 11 bases away from the 6 bp duplex. Strand displacement activity of the DNA polymerase separates the Cy3 dye from the Black hole quencher leading to an increase in fluorescent signal. (B) The high-throughput assay workflow. The DNA polymerase is incubated with […] compound for 10 min prior to addition of the hairpin substrate. The reaction is quenched at 3 different time points and the fluorescent signal is measured and % inhibition is determined using the provided equation.

[1] abbreviates: supplemental file 2, sheet IC50 nontoxic compounds; Pf-apPOL.

Chain of P. falciparum apicoplast DNA polymerase (Pf-apPOL) (Q8ILY1 entry or part of it): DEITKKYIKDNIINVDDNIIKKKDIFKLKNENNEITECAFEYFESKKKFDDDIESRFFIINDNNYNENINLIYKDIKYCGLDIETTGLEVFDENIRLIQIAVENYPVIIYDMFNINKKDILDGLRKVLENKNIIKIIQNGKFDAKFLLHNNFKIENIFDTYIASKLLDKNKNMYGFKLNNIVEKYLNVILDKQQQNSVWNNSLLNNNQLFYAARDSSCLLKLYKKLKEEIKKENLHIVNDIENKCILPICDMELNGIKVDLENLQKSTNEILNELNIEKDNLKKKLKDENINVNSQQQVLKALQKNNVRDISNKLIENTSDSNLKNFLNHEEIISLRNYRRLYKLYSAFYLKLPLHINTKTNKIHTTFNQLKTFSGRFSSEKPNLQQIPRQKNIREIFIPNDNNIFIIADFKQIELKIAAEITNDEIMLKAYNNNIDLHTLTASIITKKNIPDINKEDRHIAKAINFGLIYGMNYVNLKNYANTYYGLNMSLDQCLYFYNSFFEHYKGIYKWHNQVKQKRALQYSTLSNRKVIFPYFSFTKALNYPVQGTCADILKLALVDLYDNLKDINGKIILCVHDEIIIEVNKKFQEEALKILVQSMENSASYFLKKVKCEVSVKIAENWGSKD

Regarding `CCCCCc1c2c(cc(O)c1C(=O)O)OC(=O)c1c(cc(OC)cc1C(=O)CCCC)O2` [Molecule 24, CCCCCc1c2Oc3cc(OC)cc(c3C(=O)Oc2cc(c1C(=O)O)O)C(=O)CCCC], the “% inhibition Apo pol 10'” value is recorded as 18.1675% (DRC-1; concentration 2.5; 10'); 31.5197% (DRC-1; concentration 5; 10'); 51.0452% (DRC-1; concentration 10; 10'); 86.3655% (DRC-1; concentration 20; 10'); 94.8127% (DRC-1; concentration 40; 10'); 96.1248% (DRC-1; concentration 80 (unit not given); 10'). The “% inhibition Apol 90'” value turned out to be 17.5572% (DRC-1; concentration 2.5; 90'); 20.3733% (DRC-1; concentration 5; 90'); 38.7515% (DRC-1; concentration 10; 90'); 81.3702% (DRC-1; concentration 20; 90'); 91.3399% (DRC-1; concentration 40; 90'); 93.64% (DRC-1; concentration 80; 90'). Further, the “% inhibition apPOL 180'” value is recorded as 13.8829% (DRC-1; concentration 2.5; 180'); 11.4977% (DRC-1; concentration 5; 180'); 28.4609% (DRC-1; concentration 10; 180'); 74.6955% (DRC-1; concentration 20; 180'); 88.9652% (DRC-1; concentration 40; 180'); 92.215% (DRC-1; concentration 80; 180'). Further, the “% inhibition apPOL 180'” value was determined as 11% (DRC-2; 180'; concentration 5); 43% (DRC-2; 180'; concentration 10); 6% (DRC-2; concentration 2.5; 180'); 11% (DRC-2; concentration 5; 180'); 43% (DRC-2; concentration 10; 180'); 32% (DRC-2; concentration 20; 180'). Besides, the “% inhibition apPOL 180'” value was found to be 62% (DRC-2; concentration 40; 180') and 81% (DRC-2; concentration 80; 180'). Also, the “% inhibition Apo pol 5'” value is given as 11% (DRC-2; 5'; concentration 2.5); 11% (DRC-2; concentration 2.5; 5'); 18% (DRC-2; concentration 5; 5'); 42% (DRC-2; concentration 10; 5'); 35% (DRC-2; concentration 20; 5'); 49% (DRC-2; concentration 40; 5'). The “% inhibition Apo pol 5'” value (DRC-2; concentration 80; 5') is on record as 56%. Moreover, the “% inhibition Apol 40'” value (DRC-2; 40'; concentration 10) came out at 51%; the “% inhibition Apol 40'” value (DRC-2; 40'; concentration 20) worked out at 43%; the “% inhibition Apol 40'” value (DRC-2; concentration 2.5; 40') is recorded as 14%; the “% inhibition Apol 40'” value (DRC-2; concentration 5; 40') was found to be 20%; the “% inhibition Apol 40'” value (DRC-2; concentration 10; 40') amounted to 51%; the “% inhibition Apol 40'” value (DRC-2; concentration 20; 40') was found to be 43%. Further, the “% inhibition Apol 40'” value is, setting by setting: (DRC-2; concentration 40; 40') 65%; (DRC-2; concentration 80; 40') 76%. Besides, the “% inhibition ApPOL 90'” value came to 11% (DRC-2; 90'; concentration 2.5); 51% (DRC-2; 90'; concentration 10); 11% (DRC-2; concentration 2.5; 90'); 19% (DRC-2; concentration 5; 90'); 51% (DRC-2; concentration 10; 90'); 41% (DRC-2; concentration 20; 90'). Moreover, the “% inhibition ApPOL 90'” value runs as follows: (DRC-2; concentration 40; 90') 66%; (DRC-2; concentration 80; 90') 80%. Moreover, the “DNA Pol” value is, setting by setting: (primary screen value of the 186 hits; unit not given; 90 min, 10 µM) 33; (primary screen value; head prints only 'DNA Pol'; 90 min, 10 µM) 33.

With `Cn1nc(-c2nc(-c3ccccc3)no2)c2c1CCN(C(=O)Cc1cccs1)C2` [Molecule 58], the IC50 under setting [1] was found to be 18.5 µM.

As to `COc1cc(Cl)c(C)cc1NC(=O)Cn1ccc2c(=O)[nH]ccc21` [Molecule 33], under setting [1], the IC50 amounted to 10.3 µM.

For `O=C(c1c[nH]c2ncccc12)N1CCCC1` [Molecule 63], the IC50 under setting [1] stood at 21.4 µM.
